Experimental data published in patent publication US6372783B1, “Enantiomeric compounds for treatment of cardiac arrhythmias and methods of use” (Aryx Therapeutics, priority 1999, dated 2002).

How the values were obtained:
[1] = tested on: Male Sprague-Dawley rats; experiment: Anti-arrhythmic activity in anesthetized rats (benzene/adrenaline challenge; VPB, heart rate, EKG intervals); format: in vivo, rat; conditions: for protection against adrenaline-induced tachyarrhythmia / tachycardia (heart rate): drug administered time 0 to 120 minutes; for PR interval / QRS interval / QT interval / Heart rate (beats/minute) / Inhibition of tachycardia / Number of VPB / Inhibition of VPB: isolated enantiomer as compared to respective racemate; for PR interval / QRS interval / QT interval: EKG; for Heart rate (beats/minute) / Inhibition of tachycardia: adrenaline injection; for Number of VPB / Inhibition of VPB: benzene/adrenaline challenge; for Inhibition of VPB: 4 mg/kg i.v. then 12 mg/kg/h for 2 hours; for VPB-inhibiting activity at the end of the washout period: time 180 min; for inhibition of the formation of ventricular premature beats (VPB) during drug administration: whole period of drug administration (time 0 to 120 min)
Experimental: Anti-arrhythmic Activity in Anesthetized Rats.
Male Sprague-Dawley rats with body weights of 410±30 g (Harlan Sprague Dawley Inc., Indianapolis, Ind.), were anesthetized with sodium pentobarbital (50 mg/kg i.p.—Butler Co., Columbus, Ohio). The skin from the neck area was removed and the jugular veins on both sides were cleared of connective tissue. Both jugular veins and the left carotid artery were isolated, and the latter tied up cranially with a surgical silk (ETHICON 4-0, Ethicon Inc., Australia). A plastic catheter ([…] 19 ga, Vecton Dickinson, Sandy, Utah), filled with a solution containing 10% sodium heparin (Elkins-Sinn Inc., Cherry Hill, N.J.) in normal saline (100 U/ml sodium heparin), was introduced into the artery and fixed with surgical silk.
The catheter was connected to a pressure transducer (OHMEDA P23-XL, Ohmeda Medical Devices Division Inc., Madison, Wis.), filled with the same heparinized 0.9% NaCl solution, to register beat-to-beat arterial pressure. Needle electrodes were inserted s.c., and together with the pressure transducer, were joined to a GOULD TA 2000 recorder. Leads II, aVF and intraarterial blood pressure were monitored simultaneously throughout the experiments and recorded at certain intervals at 50 and 200 mm/sec paper speed.
The surgery was completed with an incision on the trachea where a short plastic tubing was placed and the animal was connected to a rodent-model ventilator (HARVARD Model 683, Harvard Apparatus, Inc., Holliston, Mass.). The animals were ventilated in a controlled way, depending on their spontaneous breathing frequency (55-75/min).
Drug administrations were carried out through i.v. catheters (TERUMO 24 GA*¾″, Terumo Medical Corp., Elkton, Md.) inserted into both jugular veins. The left side was used for drug infusions by means of a syringe pump (SAGE INSTRUMENTS, Model 341B, Orion Res. Inc., Boston, Mass.), and the right side was used for adrenaline injections. The experiments were started after at least 15 minutes of stabilization. Benzene/adrenaline challenges were performed as follows: the respirator inlet was connected to a 50-ml bubbler half-full with benzene (Fisher Scientific, Fair Lawn, N.J.) so that the inspired air was saturated with benzene vapor. The animal was ventilated with benzene vapor for two minutes. The tidal volume was typically 1 ml/100 g of animal. During the last 30 seconds of benzene ventilation, 10 μg/kg adrenaline solution (in 0.9% NaCl) was injected into the right jugular vein. […] These arrhythmias could be elicited repeatedly. After three control VTs (at −30, −20 and −10 minutes), the test compounds were injected slowly during 30 seconds at a dose of 4 mg/kg i.v., immediately followed by a slow infusion of 12 mg/kg/h for 2 hours. The flow rate during the infusion period was 1 ml/h.
There were 5 rats per test compound and each animal served as its own control. The ability of the different drugs to suppress arrhythmias was tested against repeated benzene/adrenaline challenges at 5, 15, 30,45, 60, 90, 120 (end of drug infusion), 135, 150, 165 and 180 minutes after the i.v. bolus injection. The amplitudes of the systolic arterial pressure and diastolic arterial pressure […] with the help of a pressure-amplitude calibration curve. Heart rate, number of ventricular complexes during the occurrence of VTs and VPBs, and certain ECG parameters (PR, QRS, QT durations and RR cycle lengths in msec) were also recorded and measured manually. At each time-point, 3-5 cycles were measured and the average values were entered into EXCEL Windows 97. The average and standard deviation for the five experimental animals per compound were calculated.

[2] = Half-life in human plasma in vitro; format: in vitro ADME; conditions: for half-life in human plasma: 37° C.
Experimental: Half-life in Human Plasma in Vitro.
Venous blood (60 ml) was collected in heparinized 1 5-ml Vacutainer® tubes from the forearm of five human volunteers. Each tube contained 1,000 units of heparin sodium salt. The blood was immediately centrifuged at 2,000 g for 10 minutes and the plasma was collected. Immediately after collection, the plasma was divided into 2-ml aliquots in borosilicate glass tubes (5-ml capacity) capped with a plastic stopper. The tubes were then equilibrated in a 37° C.-water bath for at least 15 minutes before the test samples were added.
Stock solutions were prepared by dissolving 25 μmoles (about 18 mg) of each of the test compounds in 10 ml of deionized water. To each of the glass tubes containing 2 ml of fresh plasma, equilibrated at 37° C., was added 40 μl of the stock solutions (one test compound per tube). The plasma/stock solutions were then mixed. Samples (250 μl) were collected at time 0 (immediately after mixing test compounds in plasma) and then at 30, 60, 90, 120, 180, 240, and 300 minutes. The test tubes were capped, to avoid concentration due to evaporation, and left in the 37° C. bath during the entire experiment. Each aliquot was immediately introduced into a 1.5-ml microfuge tube containing 20 μl of a 0.01% solution of diethyl paranitrophenylphosphate (paraoxon) in ethanol in order to inhibit esterase activity. The tubes were then capped and vortexed, then kept at −20° C. until analysis. The samples were thawed and mixed with 750 μl of a 0.1% solution of trifluoroacetic acid (TFA) in acetonitrile, vortexed for thorough mixing, and then centrifuged at 12,000 g for 15 minutes. The supernatant was collected for injection in the HPLC system.
The HPLC mobile phase consisted of acetonitrile and water containing 0.1% TFA and 400 mg/L benzyltriethylammoniumchloride (BTEAC) in the following proportions and flow rates: 85% acetonitrile and 15% water at 2.0 ml/min. The detection wavelength was set at 242 nm, and the injected volume was 100 μL. The HPLC peaks were recorded, and the integrated values were plotted against time using the SIGMAPLOT software version 4.0 for WINDOWS. The resulting curves were fitted to a first-order exponential decay equation from which hydrolysis half-lives were calculated.

[3] = benzene vapors and adrenaline challenge

Row | Structure (SMILES) | protection against adrenaline-induced tachyarrhythmia / tachycardia (heart rate) ([1]; comparison of the forms) | metabolism in human plasma [2] | PR interval ([1]; anesthetized rats) | QRS interval ([1]; anesthetized rats) | QT interval ([1]; anesthetized rats) | Heart rate (beats/minute) ([1]; anesthetized rats) | Inhibition of tachycardia ([1]; anesthetized rats) | Number of VPB ([1]; anesthetized rats) | Inhibition of VPB ([1]; anesthetized rats) | VPB-inhibiting activity at the end of the washout period [1] | inhibition of the formation of ventricular premature beats (VPB) during drug administration [1, 3] | half-life in human plasma [2] | effect on QT segment / interval of the EKG (Class-III properties), potency ([1]; anesthetized rats, comparison of the forms) | anti-arrhythmic activity (VPB inhibition) of the racemate relative to the enantiomers [1, 3]
1 | CC[C@H](C)OC(=O)Cc1oc2ccccc2c1C(=O)c1cc(I)c(OCCN(CC)CC)c(I)c1 [ATI-2042] | very good protection | metabolized in human plasma by esterase enzymes |  |  |  |  |  |  |  |  |  |  |  | 
2 | CCN(CC)CCOc1c(I)cc(C(=O)c2c(CC(=O)OC(C)C(C)C)oc3ccccc23)cc1I (stereo not shown) [ATI-2055] | inhibits the tachycardia | metabolized in human plasma by esterase enzymes |  |  |  |  |  |  |  |  |  |  |  | 
3 | CC[C@@H](C)OC(=O)Cc1oc2ccccc2c1C(=O)c1cc(I)c(OCCN(CC)CC)c(I)c1 [Compound R-2042, (R)-sec-Butyl2-[3-(3,5-diiodo-4-(2-diethylaminoethyloxy)benzoyl)]benzofurane-acetate] |  |  | shorter | no change | no change | lower | longer | lower | longer | completely inactive |  |  |  | 
4 | CCN(CC)CCOc1c(I)cc(C(=O)c2c(CC(=O)O[C@H](C)C(C)C)oc3ccccc23)cc1I [Compound R-2055, (R)-(3-Methyl)-2butyl 2-[3-(3,5-diiodo-4-(2-diethylaminoethyloxy)benzoyl)]benzo-furaneacetate] |  |  | shorter | longer | no change | lower | longer | lower | longer | still retained part of its activity | totally inhibited | 11.7 h |  | 
5 | CC[C@H](C)OC(=O)Cc1oc2ccccc2c1C(=O)c1cc(I)c(OCCN(CC)CC)c(I)c1 [Compound S-2042, (S)-sec-Butyl2-[3-(3,5-diiodo-4-(2-diethylaminoethyloxy)benzoyl)]benzofurane-acetate] |  |  | longer | longer | longer | lower | longer | lower | longer | still retained part of its activity | totally inhibited |  | most potent and the longest acting | 
6 | CCN(CC)CCOc1c(I)cc(C(=O)c2c(CC(=O)O[C@@H](C)C(C)C)oc3ccccc23)cc1I [Compound S-2055, (S)-(3-Methyl)-2butyl 2-[3-(3,5-diiodod-4-(2-diethylaminoethyloxy)benzoyl)]benzo-furaneacetate] |  |  | shorter | longer | no change | lower | longer | lower | longer | completely inactive |  | 8.8 h |  | 
7 | CC[C@H](C)OC(=O)Cc1oc2ccccc2c1C(=O)c1cc(I)c(OCCN(CC)CC)c(I)c1 [R,S-2042] | least potent and shortest acting |  |  |  |  |  |  |  |  |  |  |  |  | even less active than either the R- or the S-isomer
